The values that follow come from patent US20250339531A1, “DUX4 POLYPEPTIDES AND NUCLEIC ACIDS FOR TREATING INFLAMMATORY AND AUTOIMMUNE CONDITIONS” (Fred Hutchinson Cancer Center, priority 2021, published 2025).

Entries after “also recorded” stand apart in the source; their conditions may differ.

Assay [1] relates to proteins that co-immunoprecipitated with DUX4-CTD constructs expressed in MB135 myoblasts. Put plainly: LC-MS of proteins co-immunoprecipitated with DUX4-CTD (Table 1) and western validation. The class given is binding, human. The settings on record: LC-MS of co-IP; western validation with MB135-iDUXB as control; listed as DUX4-CTD. From the text: As an unbiased method to identify proteins that interact with the C-terminal region of DUX4, liquid chromatography mass spectroscopy (LC-MS) was used to identify proteins that co-immunoprecipitated with DUX4-CTD constructs expressed in MB135 myoblasts. In the first experiment, MB135iDUX4-CTD cells were used, either untreated, treated with doxycycline alone, or with both doxycycline and IFNG. In the second experiment, MB135iDUX4-CTD and MB135iDUX4mL1dL2 cells were used, both treated with doxycycline and IFNG, compared to these two cell lines untreated and combined as a control. Proteins with a minimum of 2 peptide spectrum matches (PSMs) in at least one sample that were identified in both experiments were assigned to one of ten categories (see Methods) to separate candidate interactors from other categories that might be co-purified because of obligate interactions (e.g., proteasome or ribosome) or might be less likely to be physiologically relevant (e.g., cytoskeletal proteins). Candidate interactors were then ranked based on the total PSMs for that protein across all samples.
Centrifugation at 2500 rcf at 4° C. for 5 min pelleted the nuclei, supernatant was discarded, and nuclei resuspended in 1 mL IP buffer pH 7.4 (25 mM Tris-HCl pH 7.5, 175 mM NaCl, 1 mM EDTA, 0.2% NP-40, 5% glycerol) and incubated for 1 hour at 4° C. with rotation then spun at 21000 rcf for 10 minutes at 4° C. to pellet insoluble debris. Protein concentration was determined using the Pierce BCA Protein Assay Kit (ThermoFisher, 23225). An equivalent amount of protein per sample was pre-cleared with Dynabeads Protein G (Invitrogen) bound to mouse IgG (Abcam #131368) for 1 hour at 4° C. with rotation. FLAG-tagged constructs were then immunoprecipitated with Dynabeads Protein G beads coupled to mouse anti-FLAG M2 mAb (Sigma F3165) for 3 hours at 4° C. with rotation. Beads were washed 3× with 1 mL IP buffer and eluted by adding 2× NuPage LDS Sample Buffer (Thermo Fisher, diluted from 4× with PBS) to the beads and heating for 10 minutes at 70° C.
For LC-MS, anti-FLAG immunoprecipitation was performed with beads cross-linked to the anti-FLAG antibody and the proteins competitively eluted with FLAG peptide. Eluted protein samples were electrophoresed into a NuPage 4-12% Bis-Tris gel, excised, and processed by the Fred Hutchinson Cancer Research Center Proteomics Core. Samples were reduced, alkylated, digested with trypsin, desalted, and run on the Orbitrap Eclipse Tribid Mass Spectrometer (Thermo Fisher). Proteomics data were analyzed using Proteome Discoverer 2.4 against a Uniprot human database that included common contaminants using Sequest HT and Percolator for scoring. […] Proteins that were identified in at least one sample from both independent experiments with at least 2 PSMs in one sample were assigned to one of ten categories: 1, candidates; 2, cytoskeletal associated; 3, cytoskeletal; 4, ribosome/translation associated; 5, proteasome associated; 6, membrane or extracellular; ER, golgi, or vesicle associated; 8, lipid metabolism; 9, chaperones; 10, nuclear import or nuclear membrane associated. The proteins in category 1 were further investigated for interactions with DUX4.

Assay [2] relates to de novo protein synthesis. Put plainly: [35S]-methionine/cysteine metabolic labeling of nascent protein synthesis. In kind it is cell-based. The settings on record: human myoblasts, 20-92 h after 4 h doxycycline pulse. The procedure: Cells were treated with and without a 4-hour pulse of doxycycline. Eight hours prior to harvest, cells were incubated in DMEM depleted for methionine and cysteine (Gibco) supplemented with 90 microcurie 35S-methionine/cysteine (Perkin Elmer) and 50 ng/ml […] (R&D Systems). Protein samples were harvested in RIPA buffer [150 mM NaCl, 1% NP-40, 0.5% Na-deocycholate, 1% SDS, 25 mM Tris-HCl pH7.4] supplemented with protease and phosphatase inhibitor tablets (Pierce), followed by sonication in Diagenode Bioruptor. Lysate was cleared by centrifugation at 16000×g and quantified using a Pierce BCA assay (Thermo Scientific). Samples were run on NuPAGE precast polyacrylamide gels (Invitrogen). Gels were stained with InstantBlue Coomassie (Abcam) following manufacturer protocol, placed on whatman paper, wrapped in plastic wrap, and dried. Gels were exposed to phosphor screen, imaged on Typhoon Trio imager, and analyzed with ImageQuant.

For assay [3], the system named is MHC class I proteins (HLA-A/B/C). Nature of the assay: Immunoblot of IFNG-induced MHC class I protein, continuous or pulsed protocol, MB135 myoblasts. The class given is cell-based, human. Conditions: MB135 cells; for suppression of IFNG-induced MHC class I protein, pulsed protocol: 4 h doxycycline pulse, IFNG added later for 16 h; for suppression of IFNG-induced MHC class I protein, continuous protocol: doxycycline 20 h, IFNG last 16 h. The procedure:
In the “continuous” protocol (similar to the experiments shown in the prior FIGS. 1, 2, 4, 5, and 6), doxycycline is added to induce DUX4 expression at time 0 and four hours later IFNG is added for an additional 16 hours, resulting in 20 hours of continuous DUX4 induction with the last 16 hrs exposed to IFNG.
In the “pulsed” protocol, doxycycline is added at time 0 to induce DUX4 expression, but after four hours the media is changed to remove the doxycycline, resulting in a pulse of DUX4 mRNA and protein sufficient to induce DUX4 target gene expression (see Resnick et al., Cell Rep. 2019 Nov. 12; 29(7):1812-1820.e5). IFNG is added at 28 hours for a period of 16 hours prior to harvesting the cells. […] This difference is not likely to be due to different amounts of the DUX4 and mutant DUX4 proteins because at the time of harvest both DUX4 and the F67A mutant DUX4 protein levels have declined to similarly low amounts relative to the continuous protocol, but could be due to the activation of DUX4 target genes by the full-length DUX4 since the H3.X/Y proteins show persistent expression in the pulsed protocol.
Protein samples were harvested in RIPA buffer [150 mM NaCl, 1% NP-40, 0.5% Na-deocycholate, 1% SDS, 25 mM Tris-HCl pH7.4] supplemented with protease and phosphatase inhibitor tablets (Pierce), followed by sonication in Diagenode Bioruptor. Lysate was cleared by centrifugation at 16000×g and quantified using a Pierce BCA assay (Thermo Fisher Scientific). Samples were run on NuPAGE precast polyacrylamide gels (Invitrogen) and transferred to PVDF membrane. Membranes were blocked in PBS containing 0.1% Tween-20 and 5% non-fat dry milk before overnight incubation at 4° C. with primary antibodies (see resource table for a list of antibodies used in this study). Membranes were incubated with horseradish peroxidase-conjugated secondary antibodies for 1 hour at room temperature and SuperSignal chemiluminescent substrate (Thermo Scientific) was used for detection on film with a Mini-medical 90 processor. Membranes were stripped with Restore Western Blot Stripping Buffer (Pierce).

For “longCTD: 3×FLAG tag and nls in frame with carboxyterminal 271 amino acids of DUX4 (aa154-424), SEQ ID NOS: 8-9”, in assay [1], the candidate interacting proteins entry was “STAT1 and DDX3X, two key regulators of innate immune signaling, ranked at the top of the list; also recorded: validated the DUX4-CTD interactions with DDX3X, STAT1, PRKDC, YBX1, HNRNPM, PABPC1, NCL, CDK4, and HNRPU”.
Consider “DUX4: human DUX4 protein SEQ ID NO:3 expressed from doxycycline inducible codon altered transgene SEQ ID NO:2”, for which the “nascent protein synthesis by 35S labeling” value in assay [2] was “global de novo protein synthesis was transiently reduced”; in assay [2] (listed as wildtype DUX4) it was “a reduction in labeled nascent proteins several days following a pulse”. Also, the “suppression of IFNG-induced MHC class I protein, pulsed protocol” value in assay [3] is “more profound suppression of the MHC class I proteins; also recorded: even more effectively in the pulsed protocol; also recorded: elicited the same degree of suppression when assayed forty-four hours later; also recorded: suppressed HLA-A/B/C proteins even a day later”; in assay [3] (listed as full-length DUX4), “suppresses MHC class I expression as well, or slightly better, in the pulsed protocol than in the continuous protocol”; in assay [3] (listed as wildtype DUX4) it was “suppressed MHC-I and immunoproteasome subunits”. Moreover, the “suppression of IFNG-induced MHC class I protein, continuous protocol” value was “modest suppression of MHC class I protein; also recorded: suppresses MHC class I proteins; also recorded: IFNG-induction of MHC-I and the immunoproteasome was suppressed; also recorded: MHC class I induction, but not HLA-E is blocked” in assay [3]; “suppress the IFNG induction of MHC class I expression” in assay [3] (listed as full-length DUX4); “suppressed IFNG-induced MHC-I and the immunoproteasome expression” in assay [3] (listed as wildtype DUX4).
